Measurements: patent US9556437B2, “FAT1 gene in cancer and inflammation” (DEPARTMENT OF BIOTECHNOLOGY (DBT), priority 2012, dated 2017)
Entries after “also recorded” stand apart in the source; their conditions may differ.

How the values were obtained:
Assay type in all cases: cell-based, human
U87MG cells = assay: Apoptosis by caspase3 Western blot and DAPI staining; details: 72 hrs of transfection
phospho-c-jun = assay: Western blot phospho-c-jun (Ser63); details: U87MGsiFAT1 vs siControl
Protocol: (§1) Western Blotting Analyses: Cells were lysed in triple detergent buffer containing protease and phosphatase inhibitors (Sigma Aldrich), lysates were quantified by BCA kit (Pierce, Thermo Fisher Scientific, Rockford, Ill. USA) and electrophoresed in 10% SDS-PAGE and electroblotted on nitrocellulose membrane (Millipore, Billerica, Mass., USA). Membrane was blocked with 5% bovine serum albumin (BSA) in 1×TBS at 4° C. for overnight. Primary and secondary antibody was diluted in 5% BSA and 0.1% tween-20 in 1×TBS. Blot was incubated in primary antibody overnight at 4° C. followed by secondary antibody incubation for 2 hrs at room temperature. Blot was developed by BCIP-NBT (Promega, Madison, Wis., USA) and captured using Alpha Imager EP software.

c-jun [1] = assay: c-jun mRNA level by q-PCR; details: U87MGsiFAT1 vs U87MGsiControl
Protocol: (§2) Cell Culture and siRNA Transfection: The human glioma cell lines U87MG, U373, A172, T98G, GOS3 and SW1088 were obtained from ATCC; Rockville, Md., cultured in DMEM (Sigma-Aldrich, Switzerland) supplemented with 10% (v/v) FCS (Sigma-Aldrich), 3.7 g/l sodium bicarbonate (Sigma-Aldrich), Ciprofloxacin 10 μg/ml and 5% CO2 at 37° C. For transfection, 2×10^5 cells were seeded per 25 cm^2 flask. After 24 hrs, cells were transfected with FAT1 siRNA and universal medium GC control siRNA (Invitrogen) according to the manufacturer's protocol with a final concentration of 20 nM of siRNA using LIPOFECTAMINE 2000 (Invitrogen) and Opti-Mem media (Invitrogen). After 4 hrs of siRNA transfection, the media was supplemented with DMEM containing 2×FCS. The ability of each siRNA to mediate knockdown of FAT1 mRNA was confirmed using qRT-PCR. Photomicrographs of the cells were taken using an inverted phase contrast microscope (Nikon TMS, Phase contrast microscope, Japan). For simultaneous knockdown of FAT1 and PDCD4, siRNA from Dharmacon were used. Transfection was performed as earlier with 50 nM of FAT1 siRNA along with 50 nM of PDCD4 siRNA or 50 nM of control siRNA.
cDNA Synthesis and Quantitative PCR: Total RNA was isolated from cells at appropriate time point (vide supra) using TRIzol reagent (Invitrogen), quantified using a Nanodrop ND-1000 spectrophotometer. […]

PGE2 = PGE2 ELISA of conditioned medium; details: U87MGsiFAT1 vs siControl, 72 hrs, p<0.01
Protocol: PGE2 ELISA: U87MG cells (2.5×10^5 cells/flask) were plated into 25 cm^2 flask. Transfection was performed on day 1 and 72 hrs later, the conditioned medium was collected and concentrated using Centricon YM-30. The concentration of PGE2 secreted into the medium was measured with an EIA kit for human PGE2 (Cayman Chemical, Michigan, USA).

IL6 = IL6 mRNA expression by q-PCR; details: U87MGsiFAT1 vs siControl
Protocol: as §2, with “The ability of each siRNA to mediate knockdown of FAT1 mRNA was confirmed using qRT-PCR.” left out
cDNA Synthesis and Quantitative PCR: Total RNA was isolated from cells at appropriate time point (vide supra) using TRIzol reagent (Invitrogen), quantified using a Nanodrop ND-1000 spectrophotometer.

c-jun [2] = assay: Western blot total c-jun; details: U87MGsiFAT1 vs siControl
Protocol: as §1

U87MG and A172 cells = assay: Cell morphology, phase contrast microscopy; details: U87MGsiFAT1 and A172siFAT1 vs siControl, 72 hrs post transfection
Protocol: as §2

ECM protease activity = assay: Gelatin zymography; details: conditioned media of U87MG cells, 72 hrs, vs siControl
Protocol: Gelatin Zymography: U87MG cells (2.5×10^5 cells/flask) were plated into 25 cm^2 flask. Transfection was performed on day 1 and after 72 hrs, the conditioned medium was collected, clarified by centrifugation, concentrated by Centricon YM-30 (10:1 concentration; Millipore, Billerica, Mass., USA), and separated in non-reducing polyacrylamide gels containing 0.1% (wt/vol) gelatin. The gel was incubated with 1× Zymogram renaturing buffer for 30 min at room temperature, 1× Zymogram developing buffer for 30 min at room temperature, and 1× Zymogram developing buffer at 37° C. for overnight. The gel was then stained for protein with 0.25% (w/v) Coomassie Blue R-250 and then destained with Coomassie R-250 destaining solution (Methanol:Acetic acid:Water (50:10:40). Proteolysis was detected as a white zone in a dark field.

siFAT1: FAT1 specific siRNA (Invitrogen), FAT Stealth RNAi siRNA-I (HSS103567), used for further experiments (sense CCCAACACACCUGUGGUCAUGGUAA; antisense UUACCAUGACCACAGGUGUGUUGGG; Stealth modification, chemistry not fully specified; listed as Homo sapiens)
DNA fragmentation (DAPI staining) (U87MG cells): no DNA fragmentation; also recorded: No differences | cleaved caspase-3 (Western blot) (U87MG cells): no cleaved caspase-3; also recorded: No differences | c-jun phosphorylation (p-c-jun level) (phospho-c-jun): significantly decreased; also recorded: significant reduction | c-jun mRNA level (c-jun [1]): decreased by two folds; also recorded: reduced by two folds | reduction of PGE2 secreted into the medium (PGE2): > 2 fold | reduction in IL6 mRNA expression (IL6): ~10 fold | total c-jun protein level (c-jun [2]): reduction | cell morphology (U87MG and A172 cells): significant morphological alterations; also recorded: Distinct phenotypic changes | ECM protease activity (ECM protease activity): decreased; also recorded: reduced protease activity
